Among the data in patent publication US9187471B2, “Pyrido [4,3-b] indole and pyrido [3,4-b] indole derivatives and methods of use” (Medivation Technologies, Inc., priority 2010, dated 2015) are inhibition values, retold here.

Test [1] concerns the target T1, human recombinant serotonin (5-Hydroxytryptamine) 5-HT5A receptor (Homo sapiens, UniProt P47898).
T1 construct: expressed in transfected cells; host or cells: CHO-K1
The experiment in a line: Serotonin 5-HT5A radioligand binding ([3H]LSD). The following applies: compound at 0.1 μM; read-out: Inhibition of ligand binding, Serotonin 5-HT5A (percent inhibition of specific binding). The protocol: Compounds of the invention were incubated with 1.7 nM [^3H]Lysergic acid diethylamide (LSD) for 60 min at 37° C. […] Receptor proteins were filtered and washed, the filters were counted to determine [^3H]LSD specifically bound.

Test [2] has as its target T2, human recombinant serotonin (5-Hydroxytryptamine) 5-HT6 receptor (Homo sapiens, UniProt P50406).
T2 construct: expressed in transfected cells; host or cells: HeLa
The experiment in a line: Serotonin 5-HT6 radioligand binding ([3H]LSD). The following applies: compound at 0.1 μM; read-out: Inhibition of ligand binding, Serotonin 5-HT6 (percent inhibition of specific binding). The text has this:
Receptor proteins were filtered and washed, the filters were then counted to determine [3H]LSD specifically bound.

The target in test [3] is T3, human recombinant serotonin (5-Hydroxytryptamine) 5-HT2C receptor (Homo sapiens, UniProt P28335).
T3 construct: expressed in transfected cells; host or cells: CHO-K1
T3 sequence (P28335 33-458): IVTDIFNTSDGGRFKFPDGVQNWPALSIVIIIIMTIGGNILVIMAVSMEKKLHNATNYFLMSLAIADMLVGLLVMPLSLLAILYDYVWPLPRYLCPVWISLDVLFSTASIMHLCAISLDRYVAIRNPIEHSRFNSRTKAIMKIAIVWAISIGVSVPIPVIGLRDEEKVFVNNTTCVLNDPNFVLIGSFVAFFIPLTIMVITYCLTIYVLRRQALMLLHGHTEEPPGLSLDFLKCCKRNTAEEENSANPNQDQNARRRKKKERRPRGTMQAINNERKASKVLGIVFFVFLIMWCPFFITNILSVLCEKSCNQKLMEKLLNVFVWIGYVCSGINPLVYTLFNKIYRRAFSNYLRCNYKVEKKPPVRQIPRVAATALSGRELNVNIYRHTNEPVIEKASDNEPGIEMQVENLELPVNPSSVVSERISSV
The experiment in a line: Serotonin 5-HT2C radioligand binding ([3H]Mesulergine). The following applies: compound at 0.1 μM; read-out: Inhibition of ligand binding, Serotonin 5-HT2C (percent inhibition of specific binding). The protocol: Compounds of the invention were incubated with 1 nM [^3H]Mesulergine for 60 min at 25° C. Non-specific binding was estimated in the presence of 1 μM Mianserin. Receptor proteins were filtered and washed, the filters were then counted to determine [^3H]Mesulergine specifically bound.

For test [4], the target named is T4, rat adrenergic α1A receptor (Rattus norvegicus, UniProt P43140).
T4 construct: rat adrenergic α1A receptor obtained from Wistar Rat submaxillary glands; from tissue; host or cells: Wistar rat submaxillary glands
T4 sequence (P43140 1-466): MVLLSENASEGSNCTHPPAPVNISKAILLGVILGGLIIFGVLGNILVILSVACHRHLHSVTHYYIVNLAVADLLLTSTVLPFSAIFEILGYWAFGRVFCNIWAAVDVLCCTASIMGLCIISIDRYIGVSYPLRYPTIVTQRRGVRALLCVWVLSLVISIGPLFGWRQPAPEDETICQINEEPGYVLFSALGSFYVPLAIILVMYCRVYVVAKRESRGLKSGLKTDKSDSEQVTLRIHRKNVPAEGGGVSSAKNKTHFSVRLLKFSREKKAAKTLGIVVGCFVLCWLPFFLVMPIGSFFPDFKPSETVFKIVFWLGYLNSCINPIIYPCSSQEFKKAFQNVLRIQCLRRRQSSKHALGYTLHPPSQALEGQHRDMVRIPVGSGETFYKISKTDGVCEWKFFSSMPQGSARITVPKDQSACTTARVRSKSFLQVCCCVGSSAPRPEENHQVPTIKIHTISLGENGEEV
Put plainly: Adrenergic α1A radioligand binding ([3H]Prazosin). The conditions noted are these: read-out: Adrenergic (0.1 μM) a1A, percent inhibition of specific binding; compound at 0.1 μM; 0.25 nM [3H]Prazosin. In short, it runs like this: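 Wistar rat submaxillary gland receptor in 50 mM Tris-HCl pH 7.4 with 0.5 mM EDTA, incubated with compound and 0.25 nM [3H]Prazosin for 60 min at 25 °C.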

Test [5] addresses T5, human recombinant histamine H1 receptor (Homo sapiens, UniProt P35367).
T5 construct: expressed in transfected cells; host or cells: CHO-K1
The experiment in a line: Histamine H1 radioligand binding ([3H]Pyrilamine). The following applies: read-out: Histamine H1 Binding (1 μM), percent inhibition of specific binding; compound at 1 μM; 1.2 nM [3H]Pyrilamine. An outline of the steps: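 Results expressed as percent inhibition of specific [3H]pyrilamine binding, counted on filters after washing. Receptor source: CHO-K1 cells expressing recombinant human H1, in modified Tris-HCl buffer (50 mM, pH 7.4; 2 mM MgCl2, 100 mM NaCl, 250 mM sucrose). 1 μM pyrilamine defined non-specific binding.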

The target in test [6] is T6, human recombinant serotonin (5-Hydroxytryptamine) 5-HT2A receptor (Homo sapiens, UniProt P28223).
T6 construct: expressed in transfected cells; host or cells: CHO-K1
The experiment in a line: Serotonin 5-HT2A radioligand binding ([3H]Ketanserin). The following applies: compound at 0.1 μM; read-out: Inhibition of ligand binding, Serotonin 5-HT2A (percent inhibition of specific binding). The protocol:
Compounds of the invention were incubated with 0.5 nM [^3H]Ketanserin for 60 min at 25° C. Non-specific binding was estimated in the presence of 1 μM Mianserin. Receptor proteins were filtered and washed, the filters were then counted to determine [^3H]Ketanserin specifically bound.

In general, inhibition refers to the change of the read-out against control, counted positive when it falls.

T1 sequence (P47898 whole entry): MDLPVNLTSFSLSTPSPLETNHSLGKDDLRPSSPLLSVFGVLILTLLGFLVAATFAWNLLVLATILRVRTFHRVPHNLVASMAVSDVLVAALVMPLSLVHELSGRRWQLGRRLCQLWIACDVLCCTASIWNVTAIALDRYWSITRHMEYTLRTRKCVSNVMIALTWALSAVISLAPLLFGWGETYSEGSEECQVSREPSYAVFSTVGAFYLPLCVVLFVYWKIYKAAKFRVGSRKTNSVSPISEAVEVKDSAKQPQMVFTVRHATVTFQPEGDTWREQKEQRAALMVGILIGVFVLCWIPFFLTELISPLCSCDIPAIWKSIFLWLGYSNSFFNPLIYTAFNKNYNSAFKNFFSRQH
T5 sequence (P35367 whole entry): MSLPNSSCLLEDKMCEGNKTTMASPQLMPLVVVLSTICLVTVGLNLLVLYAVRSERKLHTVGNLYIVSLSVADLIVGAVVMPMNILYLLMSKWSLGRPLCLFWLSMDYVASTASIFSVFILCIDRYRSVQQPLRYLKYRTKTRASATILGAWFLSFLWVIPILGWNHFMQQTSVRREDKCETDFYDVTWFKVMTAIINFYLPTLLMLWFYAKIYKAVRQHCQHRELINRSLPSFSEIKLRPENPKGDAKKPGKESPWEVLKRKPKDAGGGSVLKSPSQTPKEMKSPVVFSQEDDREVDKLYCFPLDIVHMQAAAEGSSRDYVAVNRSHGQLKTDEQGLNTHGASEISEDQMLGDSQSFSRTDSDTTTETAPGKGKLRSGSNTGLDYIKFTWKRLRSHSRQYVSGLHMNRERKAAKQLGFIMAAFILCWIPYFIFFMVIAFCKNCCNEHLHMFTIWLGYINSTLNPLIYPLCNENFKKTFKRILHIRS
T6 sequence (P28223 whole entry): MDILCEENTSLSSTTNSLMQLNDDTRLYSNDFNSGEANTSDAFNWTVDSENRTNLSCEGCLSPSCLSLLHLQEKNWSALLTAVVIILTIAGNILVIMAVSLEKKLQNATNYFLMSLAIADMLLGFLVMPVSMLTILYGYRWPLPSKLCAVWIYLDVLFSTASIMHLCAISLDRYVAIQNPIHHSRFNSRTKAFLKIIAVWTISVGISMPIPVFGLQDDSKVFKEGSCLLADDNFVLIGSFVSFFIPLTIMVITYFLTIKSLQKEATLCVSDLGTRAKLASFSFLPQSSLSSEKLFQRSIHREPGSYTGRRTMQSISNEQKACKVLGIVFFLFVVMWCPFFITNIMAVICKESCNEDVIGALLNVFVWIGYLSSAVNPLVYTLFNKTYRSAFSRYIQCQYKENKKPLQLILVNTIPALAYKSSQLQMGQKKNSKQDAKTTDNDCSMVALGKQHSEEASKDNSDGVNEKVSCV
T2 sequence (P50406 whole entry): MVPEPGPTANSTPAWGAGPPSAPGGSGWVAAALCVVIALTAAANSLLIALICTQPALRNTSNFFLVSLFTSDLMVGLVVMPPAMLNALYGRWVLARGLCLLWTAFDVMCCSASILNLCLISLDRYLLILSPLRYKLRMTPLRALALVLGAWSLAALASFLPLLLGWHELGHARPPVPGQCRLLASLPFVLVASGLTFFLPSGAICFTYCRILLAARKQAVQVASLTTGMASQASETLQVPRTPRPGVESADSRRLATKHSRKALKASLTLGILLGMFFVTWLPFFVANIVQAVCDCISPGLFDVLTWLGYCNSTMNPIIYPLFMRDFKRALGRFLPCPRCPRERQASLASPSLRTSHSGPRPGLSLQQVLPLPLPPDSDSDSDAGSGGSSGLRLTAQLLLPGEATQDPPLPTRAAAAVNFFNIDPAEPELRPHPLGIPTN

As for `CC(=O)Nc1ccc(-c2ccc(-n3c4c(c5cc(C)ccc53)CN(C)CC4)nc2)cn1` [Compound No. 139, N-(6′-(2,8-dimethyl-3,4-dihydro-1H-pyrido[4,3-b]indol-5(2H)-yl)-3,3′-bipyridin-6-yl)acetamide], the inhibition at 0.1 µM in test [1] is -4%; in test [2] it was -1%; in test [3], 65%; in test [4], 22%; in test [6] it was 64%. The inhibition at 1 µM in test [5] was 4%.
For `Cc1ccc2c(c1)c1c(n2-c2ccc3ccncc3c2)CCN(C)C1` [Compound No. 74, 5-(isoquinolin-7-yl)-2,8-dimethyl-2,3,4,5-tetrahydro-1H-pyrido[4,3-b]indole], the inhibition at 0.1 µM in test [1] was 21%; in test [2], 14%; in test [3], 51%; in test [4] it was 52%; in test [6], 34%. The inhibition at 1 µM in test [5] worked out at 18%.
As to `Cc1ccc2c(c1)c1c(n2-c2ccc(-c3sccc3C)cn2)CCN(C)C1` [Compound No. 148, 2,8-dimethyl-5-(5-(3-methylthiophen-2-yl)pyridin-2-yl)-2,3,4,5-tetrahydro-1H-pyrido[4,3-b]indole], the inhibition at 0.1 µM in test [1] is 50%; in test [2], 5%; in test [3], 88%; in test [4] it was 20%; in test [6] it was 95%. Besides, the inhibition at 1 µM in test [5] was found to be 5%.
For the compound `CC(=O)Nc1ccc(-c2cccc(-n3c4c(c5cc(C)ccc53)CN(C)CC4)c2)cn1` [Compound 45, N-(5-(3-(2,8-dimethyl-3,4-dihydro-1H-pyrido[4,3-b]indol-5(2H)-yl)phenyl)pyridin-2-yl)acetamide], the inhibition at 0.1 µM turned out to be 37% in test [1]; 6% in test [2]; 26% in test [3]; 13% in test [4]; 71% in test [6]. In addition, in test [5], the inhibition at 1 µM came to 8%.
Turning to `Cc1ccc2c(c1)c1c(n2-c2cccc(-c3ccc(F)nc3)c2)CCN(C)C1` [Compound 44, 5-(3-(6-fluoropyridin-3-yl)phenyl)-2,8-dimethyl-2,3,4,5-tetrahydro-1H-pyrido[4,3-b]indole], the inhibition at 0.1 µM in test [1] stood at 61%; in test [2] it was 21%; in test [3] it was 83%; in test [4] it was 15%; in test [6], 103%. For the same compound, in test [5], the inhibition at 1 µM is 41%.
For the compound `Cc1ccc2c(c1)c1c(n2-c2ccc(-c3cnc(N(C)C)nc3)cn2)CCN(C)C1` [Compound No. 138, 5-(6-(2,8-dimethyl-3,4-dihydro-1H-pyrido[4,3-b]indol-5(2H)-yl)pyridin-3-yl)-N,N-dimethylpyrimidin-2-amine], the inhibition at 0.1 µM in test [1] was 13%; in test [2], -6%; in test [3], 86%; in test [4], 32%; in test [6], 83%. Also, the inhibition at 1 µM in test [5] was found to be 7%.
With `Cc1ccc2c(c1)c1c(n2-c2cccc(-c3ccc4[nH]cnc4c3)c2)CCN(C)C1` [Compound 54, 5-(3-(1H-benzo[d]imidazol-5-yl)phenyl)-2,8-dimethyl-2,3,4,5-tetrahydro-1H-pyrido[4,3-b]indole], the inhibition at 0.1 µM in test [1] was 33%; in test [2] it was 25%; in test [3], 21%; in test [4] it was -7%; in test [6] it was 92%. For the same compound, the inhibition at 1 µM in test [5] turned out to be 40%.
For `Cc1ccc2c(c1)c1c(n2-c2cscc2-c2c(C)noc2C)CCN(C)C1` [Compound 62], the inhibition at 0.1 µM was 54% in test [1]; 28% in test [2]; 56% in test [3]; 9% in test [4]; 68% in test [6]. For the same compound, in test [5], the inhibition at 1 µM was found to be 27%.
